Reference: patent US20160177261A1, “METHODS OF INDUCING AND PREVENTING NEUROFIBROMATOSIS IN SCHWANN CELLS” (University of Central Florida Research Foundation, Inc., priority 2007, published 2016)
“Also recorded” adds a separate entry of the source.

Experiments:
Format in all cases: cell-based, rat
P-CREB = test: Western blot of phosphorylated CREB in subconfluent SCs
Description: (§1) FIG. 3: NRG1 stimulates phosphorylation of Sch by PKA. A, C) Subconfluent SC cultures grown on PLL were serum-starved overnight and were stimulated for 30 minutes with NRG1 (10 ng/ml) in the absence and presence of AG825 (1 μM). Western blot analysis was used to determine the levels of phosphorylated and total ErbB2, Sch, and Pak. B, D) Quantification of the western blots of starved (D0.5), NRG1 stimulated (NRG) and NRG1 plus AG825 (N+A) stimulated cultures is shown. E) Subconfluent SCs grown as above were stimulated for 30 minutes with NRG in the presence and absence of PKI 14-22 (50 nM), and with forskolin (FSK; 2 μM) alone. F) Quantification of the Western blots for ErbB2, Sch, and Pak in starved (D0.5) cultures, and in those stimulated with NRG1 (NRG), NRG1 with PKI 14-22 (N+P), and forskolin (FSK) is shown. […]
(§2) Subconfluent SC cultures grown on PLL were serum-starved overnight and were stimulated for 30 minutes with NRG1 (10 ng/ml) and laminin-1 ([…]) together, in the absence and presence of AG825 (1 μM). […] Total protein expression was analyzed using antibodies against Sch (Sch-C18), Pak, β1 integrin, and ErbB2. B, D, F) Quantification of the expression levels of phosphorylated forms of Sch (PS518-Sch) and Pak (P-Pak) were assessed in starved (D0.5), NRG1 and laminin-1 stimulated (NRG+Lam), and NRG1 plus laminin-1 and AG825 (N+L+A) stimulated cultures. […]

Sch = test: Western blot densitometry of total Sch (Sch-C18) protein in subconfluent SCs; details: NRG1 and laminin-1 30 min in the presence and absence of AG825
Description: (§3) FIG. 4: Soluble Laminin-1 Stimulates Phosphorylation of Sch. A, C) Subconfluent SC cultures grown on PLL were stimulated with laminin-1 (10 μg/ml) for 30 minutes after overnight serum starvation. Western blot analysis using antibodies specific for the phosphorylated forms of Sch (PS518-Sch) and Pak (P-Pak) and antibodies against total Sch (Sch-C18), Pak, and β1 integrin are shown. B, D). Quantification of Western blots for starved (D0.5) and laminin-1 stimulated (Lam) cultures is shown. The graphs represent the average fold increase in each condition observed in three or more experiments. GAPDH was used as a loading control for all blots. Error bars represent the SEM for each condition. P values are <0.05(*) and <0.01(**).
as §2, with “cultures. The amount of total Sch (Sch-C18), Pak, β1 integrin, and ErbB2 proteins were measured by densitometry.” for “cultures.”

P-Pak = test: Western blot densitometry of phosphorylated Pak in subconfluent SCs
Description: as §1
FIG. 4: Soluble Laminin-1 Stimulates Phosphorylation of Sch. […] Quantification of Western blots for starved (D0.5) and laminin-1 stimulated (Lam) cultures is shown. […]
Subconfluent SC cultures grown on PLL were serum-starved overnight and were stimulated for 30 minutes with NRG1 (10 ng/ml) and laminin-1 ([…]) together, in the absence and presence of AG825 (1 μM). […] Total protein expression was analyzed using antibodies against Sch (Sch-C18), Pak, β1 integrin, and ErbB2. […] The amount of total Sch (Sch-C18), Pak, β1 integrin, and ErbB2 proteins were measured by densitometry. […]

Pak = test: Western blot densitometry of total Pak protein in subconfluent SCs; details: NRG1 and laminin-1 30 min in the presence and absence of AG825
Description: as §3
as §2, with “cultures. The amount of total Sch (Sch-C18), Pak, β1 integrin, and ErbB2 proteins were measured by densitometry.” for “cultures.”

P-ErbB2 = test: Western blot densitometry of phosphorylated ErbB2 in subconfluent SCs; details: NRG1 10 ng/ml 30 min with AG825 (1 μM)
Description: (§4) FIG. 3: NRG1 stimulates phosphorylation of Sch by PKA. A, C) Subconfluent SC cultures grown on PLL were serum-starved overnight and were stimulated for 30 minutes with NRG1 (10 ng/ml) in the absence and presence of AG825 (1 μM). Western blot analysis was used to determine the levels of phosphorylated and total ErbB2, Sch, and Pak. B, D) Quantification of the western blots of starved (D0.5), NRG1 stimulated (NRG) and NRG1 plus AG825 (N+A) stimulated cultures is shown. E) Subconfluent SCs grown as above were stimulated for 30 minutes with NRG in the presence and absence of PKI 14-22 (50 nM), and with forskolin (FSK; 2 μM) alone. F) Quantification of the Western blots for ErbB2, Sch, and Pak in starved (D0.5) cultures, and in those stimulated with NRG1 (NRG), NRG1 with PKI 14-22 (N+P), and forskolin (FSK) is shown. GAPDH was used as a loading control for all blots. The graphs represent the average fold increase in each condition in three or more experiments. Error bars represent the SEM for each condition. […]
Primary rat SCs were grown to approximately 60% confluency on PLL coated dishes. […] Following extraction, the SC lysate was measured for protein concentration, and […] of total SC lysate was separated by SDS-PAGE and was transferred to PVDF membranes. […] Bands intensities were quantified and normalized to GAPDH, and to their respective total proteins for phosphorylated forms. […]

β1 integrin = test: Western blot densitometry of total β1 integrin protein in subconfluent SCs
Description: as §3
FIG. 6: β1 integrin and ErbB2 Exist as a Complex on the Plasma Membrane. A) Subconfluent SC cultures grown on PLL and laminin-1 were starved overnight and were stimulated with NRG1 for 30 minutes. SCs were triple-labeled with the indicated antibodies to assess protein co-localization. […] E) Quantification of total β1 integrin and ErbB2 expression was assessed by densitometry in starved (D0.5), NRG1 stimulated (NRG) and NRG with AG825 (N+A) stimulated cultures. […] G) Quantification of total β1 integrin and ErbB2 expression in starved (D0.5), laminin-stimulated (Lam) and laminin+AG825 (L+A) stimulated cultures is shown. […]
as §2, with “cultures. The amount of total Sch (Sch-C18), Pak, β1 integrin, and ErbB2 proteins were measured by densitometry.” for “cultures.”

ErbB2 = test: Western blot densitometry of total ErbB2 protein in subconfluent SCs
Description: as §4, with “experiments.” for “experiments. Error bars represent the SEM for each condition.”
FIG. 6: β1 integrin and ErbB2 Exist as a Complex on the Plasma Membrane. […] E) Quantification of total β1 integrin and ErbB2 expression was assessed by densitometry in starved (D0.5), NRG1 stimulated (NRG) and NRG with AG825 (N+A) stimulated cultures. […] G) Quantification of total β1 integrin and ErbB2 expression in starved (D0.5), laminin-stimulated (Lam) and laminin+AG825 (L+A) stimulated cultures is shown. […]

PS518-Sch = test: Western blot densitometry of Sch-S518 phosphorylation in subconfluent SCs
Description: FIG. 3: NRG1 stimulates phosphorylation of Sch by PKA. A, C) Subconfluent SC cultures grown on PLL were serum-starved overnight and were stimulated for 30 minutes with NRG1 (10 ng/ml) in the absence and presence of AG825 (1 μM). Western blot analysis was used to determine the levels of phosphorylated and total ErbB2, Sch, and Pak. B, D) Quantification of the western blots of starved (D0.5), NRG1 stimulated (NRG) and NRG1 plus AG825 (N+A) stimulated cultures is shown. E) Subconfluent SCs grown as above were stimulated for 30 minutes with NRG in the presence and absence of PKI 14-22 (50 nM), and with forskolin (FSK; 2 μM) alone. F) Quantification of the Western blots for ErbB2, Sch, and Pak in starved (D0.5) cultures, and in those stimulated with NRG1 (NRG), NRG1 with PKI 14-22 (N+P), and forskolin (FSK) is shown. GAPDH was used as a loading control for all blots. The graphs represent the average fold increase in each condition in three or more experiments. Error bars represent the SEM for each condition. P values are <0.05(*) with respect to starved SCs or as indicated.
as §3
Subconfluent SC cultures grown on PLL were serum-starved overnight and were stimulated for 30 minutes with NRG1 (10 ng/ml) and laminin-1 ([…]) together, in the absence and presence of AG825 (1 μM). A, C, E, G) Western blot analyses were conducted using phospho-specific antibodies for Sch (PS518-Sch), Pak (P-Pak), and CREB (P-CREB). Total protein expression was analyzed using antibodies against Sch (Sch-C18), Pak, β1 integrin, and ErbB2. B, D, F) Quantification of the expression levels of phosphorylated forms of Sch (PS518-Sch) and Pak (P-Pak) were assessed in starved (D0.5), NRG1 and laminin-1 stimulated (NRG+Lam), and NRG1 plus laminin-1 and AG825 (N+L+A) stimulated cultures. The amount of total Sch (Sch-C18), Pak, β1 integrin, and ErbB2 proteins were measured by densitometry. GAPDH was used as a loading control. The graphs represent the average fold increase in each condition in three or more experiments. Error bars represent the SEM for each condition. […]

[1] = AG825 in the absence of NRG1 (data not shown)
[2] = NRG1 and laminin-1 30 min in the presence of AG825 (1 μM), compared to starved SCs

COc1cc(/C=C(\C#N)C(N)=O)cc(CSc2nc3ccccc3s2)c1O [AG825]
effect on NRG1 stimulated CREB phosphorylation (P-CREB; NRG1 30 min with inhibitor (AG825 or PKI 14-22 50 nM)): inhibit this phosphorylation | effect on CREB phosphorylation in dually stimulated SCs (P-CREB; NRG1 and laminin-1 30 min with AG825 (1 μM)): inhibited phosphorylation of CREB; also recorded: eliminated | effect on Sch protein levels (Sch): not significantly changed | effect on basal level of phosphorylated Pak (P-Pak; [1]): increases basal levels | P-Pak fold increase (P-Pak; [2]): 3.1 fold | effect on Pak protein levels (Pak): not significantly changed | effect on NRG1 stimulated phosphorylation of ErbB2 (P-ErbB2): reduced NRG1 stimulated phosphorylation of ErbB2 significantly | effect on NRG1 induced increase of β1 integrin protein levels (β1 integrin; NRG1 30 min with AG825 (1 μM)): suppressed NRG1's effect; also recorded: inhibits the increase in β1 integrin | effect on β1 integrin protein levels (β1 integrin; NRG1 and laminin-1 30 min in the presence and absence of AG825): not significantly changed | decrease in β1 integrin levels (β1 integrin; laminin-1 30 min with AG825 (1 μM)): 50% | effect on NRG1 induced change of ErbB2 protein levels (ErbB2; NRG1 30 min with AG825 (1 μM)): attenuated the reduction in ErbB2 levels; also recorded: suppressed NRG1's effect; also recorded: attenuates the loss of ErbB2 protein | effect on ErbB2 levels (ErbB2; laminin-1 30 min with AG825 (1 μM), with respect to laminin-stimulated SCs): did not alter | effect on basal level of phosphorylated Sch (PS518-Sch; [1]): increases basal levels | reduction of Sch-S518 phosphorylation in response to NRG1 (PS518-Sch; NRG1 10 ng/ml 30 min with inhibitor (AG825 1 μM or PKI 14-22 50 nM)): 50% | effect on NRG1 stimulated Sch-S518 phosphorylation (PS518-Sch; NRG1 30 min with inhibitor (AG825 1 μM or PKI 14-22 50 nM)): reduced | PS518-Sch fold increase (PS518-Sch; [2]): 4.6 fold
